From patent US9682928B2 (NeuroPro Therapeutics, Inc., priority 2009, dated 2017)

Columns and labels:
Na+K+Cl− co-transporter = target: T1, Na+K+Cl− co-transporter (Rattus norvegicus, UniProt E9PTX9); experiment: Na+K+Cl− cotransporter assay, 86Rb uptake in A7r5 cells; assay type: cell-based; details: 10 minutes at 37° C.; for inhibition at 10 µM: read-out: % Inhibition of Control Values; for remaining activity at 10 µM: read-out: % of Control Value
T1 construct: endogenous in cells; host or cells: A7r5 cells
T1 sequence (E9PTX9 1-1203): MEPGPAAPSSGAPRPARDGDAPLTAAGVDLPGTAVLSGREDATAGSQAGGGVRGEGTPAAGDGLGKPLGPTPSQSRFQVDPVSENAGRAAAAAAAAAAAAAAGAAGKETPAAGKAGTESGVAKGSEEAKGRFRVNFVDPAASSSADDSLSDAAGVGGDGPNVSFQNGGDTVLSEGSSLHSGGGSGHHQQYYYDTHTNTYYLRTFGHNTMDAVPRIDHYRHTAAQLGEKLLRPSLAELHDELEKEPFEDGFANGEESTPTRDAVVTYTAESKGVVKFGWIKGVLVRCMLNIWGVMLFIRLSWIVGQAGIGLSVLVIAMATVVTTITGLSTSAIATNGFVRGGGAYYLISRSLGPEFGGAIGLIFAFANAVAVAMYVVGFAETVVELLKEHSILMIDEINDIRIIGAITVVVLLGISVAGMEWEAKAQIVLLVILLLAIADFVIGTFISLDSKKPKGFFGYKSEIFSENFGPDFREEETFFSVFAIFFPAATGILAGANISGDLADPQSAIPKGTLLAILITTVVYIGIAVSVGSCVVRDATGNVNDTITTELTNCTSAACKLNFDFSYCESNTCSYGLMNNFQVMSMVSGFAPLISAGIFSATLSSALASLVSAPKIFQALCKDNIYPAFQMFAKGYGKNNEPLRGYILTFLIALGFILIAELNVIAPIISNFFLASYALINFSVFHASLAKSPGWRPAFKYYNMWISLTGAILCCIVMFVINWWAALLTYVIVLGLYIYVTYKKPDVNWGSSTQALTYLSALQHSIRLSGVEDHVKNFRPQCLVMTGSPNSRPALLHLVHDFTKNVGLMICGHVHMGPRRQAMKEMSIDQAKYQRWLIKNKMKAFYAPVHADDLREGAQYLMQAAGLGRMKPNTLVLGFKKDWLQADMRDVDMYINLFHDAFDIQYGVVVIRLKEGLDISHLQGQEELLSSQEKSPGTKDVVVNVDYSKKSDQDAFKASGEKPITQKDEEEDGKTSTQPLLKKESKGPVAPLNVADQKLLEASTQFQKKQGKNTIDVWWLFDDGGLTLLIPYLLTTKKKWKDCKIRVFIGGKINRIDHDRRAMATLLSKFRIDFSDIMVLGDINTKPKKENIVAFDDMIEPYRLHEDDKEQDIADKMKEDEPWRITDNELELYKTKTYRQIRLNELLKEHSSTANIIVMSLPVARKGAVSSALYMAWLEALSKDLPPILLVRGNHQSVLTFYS
Description: Na^+K^+Cl^− co-transporter activity was measured in vitro in A7r5 cells by measuring their uptake of ^86Rb (0.2 μCi) in 10 minutes at 37° C. as detected by scintillation counting. See Chassande, et al. (1988) “The Na^+/K^+/Cl^− Cotransport in C6 glioma cells. Properties and role in volume regulation.” Eur. J. Biochem. 171: 425433.

Rat [1] = experiment: Cortical spreading depression (rat), IP administration; assay type: in vivo
Rat [2] = experiment: Exploratory Bennett neuropathic pain (rat), plus inhibitor; assay type: in vivo
adult mice (C57/B16) = experiment: Mesial temporal lobe epilepsy model (mice), hippocampal discharges; assay type: in vivo, mouse; details: for Cumulative duration of hippocampal discharges / Number of hippocampal discharges: 50 mg/kg for NTP-2014 and NTP-2026, 150 mg/kg for NTP-2024, NTP-2006, NTP-1007, NTP-1003; for Suppression of discharges through 80 minutes post-dose: 25 and 50 mg/kg (NTP-2014), 50 mg/kg (NTP-2026); for Significant decrease in cumulative duration of and total number of hippocampal discharges: dose-response study, mice
Description: Antiepileptic protocol: Up to eight adult mice (C57/B16) are injected with kainate (1 nmol in 50 nl) and are implanted with a bipolar electrode in the dorsal hippocampus using stereotaxic techniques under general anesthesia. […] Drug conditions are counter-balanced, the animals being used as their own controls. Digital EEG recordings are performed in freely moving animals for 20 min pre-injection and 80 min post-injection. The effects of the injected compound are compared versus vehicle injections and reference period (pre-dose). Upon completion of the experiment, standard histological analysis are performed to verify electrode location, cell losses in CA1, CA3 and hilus, as well as dentate gyrus dispersion. Only animals with all characteristics of MTLE are used in data analysis. […] The results below are normalized to the pre-dose condition for each of the treatment group including DMSO and saline vehicle controls. Doses of test article compounds were 50 mg/kg for NTP-2014 and NTP-2026 and 150 mg/kg for NTP-2024, NTP-2006, NTP-1007, and NTP-1003. Therefore the bumetanide, furosemide, piretanide, azosemide, and torsemide esters and amide analogs described herein may be used in therapeutic methods to treat seizures.

Rat [3] = experiment: MES (Rat); assay type: in vivo
Male Rj: NMRI mice = experiment: Formalin paw test (late phase) in the mouse; assay type: in vivo; details: for Antinociception compared to gabapentin (584 μmol/kg; 100 mg/kg): late phase, at highest two doses (NTP-2014, NTP-2024) or highest dose (NTP-2026, Bumetanide)
In short: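 Male NMRI mice received an intraplantar injection of 5% formalin (25 μl) into the left hind paw. Licking of the injected paw was scored at 1-min intervals from 15 to 50 min, blind, with 10 mice per group. Treated groups were compared with vehicle by Mann-Whitney U test; gabapentin 100 mg/kg i.p. served as reference.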

[4] = i.p. 30 minutes before the test, 50 μmol/kg (NTP-2006 23.9, NTP-2024 21.7, NTP-1007 19.3, NTP-2014 21, NTP-2026 23.1 mg/kg)
[5] = i.p., 250 μmol/kg (NTP-2006 119, NTP-2024 108, NTP-1007 96.5, NTP-2014 105, NTP-2026 116 mg/kg)
[6] = i.p., 500 μmol/kg (NTP-2006 239, NTP-2024 217, NTP-1007 193, NTP-2014 210, NTP-2026 231 mg/kg)

Structure (SMILES) | inhibition at 10 µM (Na+K+Cl− co-transporter) | remaining activity at 10 µM (Na+K+Cl− co-transporter) | Activity against tactile allodynia (Rat [2]) | Cumulative duration of hippocampal discharges (adult mice (C57/B16)) | Number of hippocampal discharges (adult mice (C57/B16)) | Suppression of discharges through 80 minutes post-dose (adult mice (C57/B16)) | Significant decrease in cumulative duration of and total number of hippocampal discharges (adult mice (C57/B16)) | Decrease in pain, Formalin Paw Test (Mice) - Late Phase (Male Rj: NMRI mice; at 50, 250, 500 μmol/kg) | Licking Score (15 to 50 minutes post-formalin injection) % Change from Control (Male Rj: NMRI mice; [4]) | Licking Score (15 to 50 minutes post-formalin injection) % Change from Control (Male Rj: NMRI mice; [5]) | Licking Score (15 to 50 minutes post-formalin injection) % Change from Control (Male Rj: NMRI mice; [6]) | Antinociception compared to gabapentin (584 μmol/kg; 100 mg/kg) (Male Rj: NMRI mice) | Decrease in pain, Formalin Paw Test (Mice) - Late Phase (Male Rj: NMRI mice; at 250, 500 μmol/kg) | further results
CCCCN(CCCC)c1cc(C(=O)O)cc(S(N)(=O)=O)c1Oc1ccccc1 [NTP-2014, 3-Aminosulfonyl-5-N,N-dibutylamino-4-phenoxybenzoic acid] | -4% | 104% | Significant effects against tactile allodynia | decreased | decreased | 25 and 50 mg/kg, near complete | Dose-response relationship | Significant decrease in pain at 50 (p < 0.05), 250 | −38% | −99% | −90% | much better than gabapentin (584 μmol/kg; 100 mg/kg) |  | Change in CSD events (Rat [1]; 10 mg/kg IP, p < 0.05): −38%; Change in CSD events (Rat [1]; 50 mg/kg IP, p < 0.05): −37%; Change in CSD events (Rat [1]; 75 mg/kg IP, p < 0.05): −47%; Significant adverse events (Rat [3]; 100 mg/kg): seen at 300 mg/kg. No; Toxic effects (Rat [3]; 300 mg/kg): mg/kg. Toxic effects; Rats with complete suppression (Rat [3]; at 4 hr, 100 mg/kg): at 4 hr in 2/3 rats at 100
CCCCNc1cc(C(=O)O)cc(S(N)(=O)=O)c1Oc1ccccc1 [Bumetanide, reference compound] | 76% | 24% |  |  |  |  |  | Significant decrease in pain at 50 (p < 0.05), 250 (p < 0.01), |  |  |  | 500 (p < 0.001 ) μmol/kg; 18.2, 91.1, 182 mg/kg; better |  | Decrease in CSD events (Rat [1]; 10 and 30 mg/kg, p~0.05): CSD events (~30%) at 10 and 30; Activity in MES (Rat [3]; doses up to 200 mg/kg, no metabolic inhibitor coadministered): No activity at doses up
CCCCNc1cc(C(=O)NN2CCOCC2)cc(S(N)(=O)=O)c1Oc1ccccc1 [NTP-2024, N-Morpholinyl 3-Aminosulfonyl-5-N-butylamino-4-phenoxybenzamide] |  |  | Dose-related activity against tactile | decreased | decreased |  | Dose-response relationship |  | −1% | −51% | −41% | (p < 0.05) μmol/kg; 108, 217 mg/kg; slightly less | Significant decrease in pain at 250 (p < 0.01), 500 | % Inhibition of Control Values (Na+K+Cl− co-transporter; 10 μM): 20%; % of Control Value (Na+K+Cl− co-transporter; 10 μM): 80.2%; Decrease in CSD events (Rat [1]; 300 mg/kg, co-administered general metabolic inhibitor (NS)): 32% decrease in CSD events at; Licking Score % Pain Decrease (Male Rj: NMRI mice; 50 μmol/kg i.p.): 1%; Licking Score % Pain Decrease (Male Rj: NMRI mice; 250 μmol/kg i.p.): 51%; Licking Score % Pain Decrease (Male Rj: NMRI mice; 500 μmol/kg i.p.): 41%; Anti-inflammatory and analgesic effects in formalin paw test (FIG. 16) (Male Rj: NMRI mice; 50, 250, 500 μmole/kg): show anti-inflammatory and analgesic effects
CCCCNc1cc(C(=O)N(C)CCCN(C)C)cc(S(N)(=O)=O)c1Oc1ccccc1 [NTP-2026, N-(3-(Dimethylamino)propyl)-N-methyl 3-Aminosulfonyl-5-N-butylamino-4-phenoxybenzamide] |  |  | Very low doses tested, no significant | decreased | decreased | 50 mg/kg, near complete suppression of | Dose-response relationship |  | no effects | −49% | −82% |  | Significant decrease in pain at 250 (p < 0.01), 500 | Decrease in CSD events (Rat [1]; 10-75 mg/kg, p < 0.05): CSD events (~30-40%) at 10-75; Activity in MES (Rat [3]; 30, 100, 330 mg/kg): No activity at 30, 100,
